Experimental data reported in patent US12384797B2, “Thioeno[3,2-b] pyridin-7-amine compounds for treating familial dysautonomia” (PTC THERAPEUTICS, INC., priority 2019, dated 2025).

System: Elongator complex protein 1 (ELP1, also referred to as IKBKAP)
Assay: IKBKAP-HTRF assay (IKBKAP protein in lysates of FD patient-derived fibroblasts)
Assay type: cell-based, human
Conditions: 48 hours incubation, 7-point concentration curve
In short: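 Sandwich HTRF with two labelled anti-IKAP antibodies (overnight, 4 °C) measured IKBKAP in lysates of FD patient fibroblasts. Cells were exposed to compound for 48 h at 37 °C (7-point curve, 3.16-fold steps, triplicates). EC2x is the dose doubling IKBKAP versus DMSO control; MFI is sample ΔF divided by vehicle ΔF.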

C[C@H](N)Cc1sc2c(NCc3cccs3)cc(Cl)nc2c1Cl [Compound 52, 2-[(2S)-2-aminopropyl]-3,5-dichloro-N-[(thiophen-2-yl)methyl]thieno[3,2-b]pyridin-7-amine]
EC2x for IKBKAP protein expression (concentration producing two times the amount of IKBKAP protein vs DMSO vehicle control): ***** (≤0.005 μM is indicated by five stars (*****)) | MFI (maximum fold increase in IKBKAP protein abundance relative to the vehicle control): ***** (>4.9 is indicated by five stars (*****))

C[C@H](N)Cc1sc2c(NCc3cccs3)cc(Cl)nc2c1Br [Compound 53, 2-[(2S)-2-aminopropyl]-3-bromo-5-chloro-N-[(thiophen-2-yl)methyl]thieno[3,2-b]pyridin-7-amine]
EC2x for IKBKAP protein expression (concentration producing two times the amount of IKBKAP protein vs DMSO vehicle control): ***** (≤0.005 μM is indicated by five stars (*****)) | MFI (maximum fold increase in IKBKAP protein abundance relative to the vehicle control): ***** (>4.9 is indicated by five stars (*****))

Cc1c(C[C@H](C)N)sc2c(NCc3cccs3)cc(C#N)nc12 [Compound 54, 2-[(2S)-2-aminopropyl]-3-methyl-7-{[(thiophen-2-yl)methyl]amino}thieno[3,2-b]pyridine-5-carbonitrile]
EC2x for IKBKAP protein expression (concentration producing two times the amount of IKBKAP protein vs DMSO vehicle control): ***** (≤0.005 μM is indicated by five stars (*****)) | MFI (maximum fold increase in IKBKAP protein abundance relative to the vehicle control): ***** (>4.9 is indicated by five stars (*****))

Cc1c([C@H](C)N)sc2c(NCc3cccs3)cc(Cl)nc12 [Compound 55, 2-[(1S)-1-aminoethyl]-5-chloro-3-methyl-N-[(thiophen-2-yl)methyl]thieno[3,2-b]pyridin-7-amine]
EC2x for IKBKAP protein expression (concentration producing two times the amount of IKBKAP protein vs DMSO vehicle control): **** (between >0.005 μM and ≤0.02 μM is indicated by four stars (****)) | MFI (maximum fold increase in IKBKAP protein abundance relative to the vehicle control): **** (between >3.9 and ≤4.9 is indicated by four stars (****))

Cc1c([C@@H](C)N)sc2c(NCc3cccs3)cc(Cl)nc12 [Compound 56, 2-[(1R)-1-aminoethyl]-5-chloro-3-methyl-N-[(thiophen-2-yl)methyl]thieno[3,2-b]pyridin-7-amine]
EC2x for IKBKAP protein expression (concentration producing two times the amount of IKBKAP protein vs DMSO vehicle control): * (An EC2x>1 μM is indicated by one star (*)) | MFI (maximum fold increase in IKBKAP protein abundance relative to the vehicle control): * (An MFI≤1.9 is indicated by one star (*))

Cc1c(C[C@H](C)N)sc2c(NCc3nccs3)cc(Cl)nc12 [Compound 57, 2-[(2S)-2-aminopropyl]-5-chloro-3-methyl-N-[(1,3-thiazol-2-yl)methyl]thieno[3,2-b]pyridin-7-amine]
EC2x for IKBKAP protein expression (concentration producing two times the amount of IKBKAP protein vs DMSO vehicle control): ***** (≤0.005 μM is indicated by five stars (*****)) | MFI (maximum fold increase in IKBKAP protein abundance relative to the vehicle control): ***** (>4.9 is indicated by five stars (*****))

Cc1c(C[C@@H](N)CO)sc2c(NCc3ccco3)cc(Cl)nc12 [Compound 58, (2R)-2-amino-3-(5-chloro-7-{[(furan-2-yl)methyl]amino}-3-methylthieno[3,2-b]pyridin-2-yl)propan-1-ol]
EC2x for IKBKAP protein expression (concentration producing two times the amount of IKBKAP protein vs DMSO vehicle control): ***** (≤0.005 μM is indicated by five stars (*****)) | MFI (maximum fold increase in IKBKAP protein abundance relative to the vehicle control): ***** (>4.9 is indicated by five stars (*****))

Cc1c(C[C@H](N)CF)sc2c(NCc3ccco3)cc(Cl)nc12 [Compound 59, 2-[(2S)-2-amino-3-fluoropropyl]-5-chloro-N-[(furan-2-yl)methyl]-3-methylthieno[3,2-b]pyridin-7-amine]
EC2x for IKBKAP protein expression (concentration producing two times the amount of IKBKAP protein vs DMSO vehicle control): *** (between >0.02 μM and ≤0.5 μM is indicated by three stars (***)) | MFI (maximum fold increase in IKBKAP protein abundance relative to the vehicle control): ** (between >1.9 and ≤2.9 is indicated by two stars (**))

Cc1cc(NCc2nccs2)c2sc(C[C@H](C)N)c(Cl)c2n1 [Compound 60, 2-[(2S)-2-aminopropyl]-3-chloro-5-methyl-N-[(1,3-thiazol-2-yl)methyl]thieno[3,2-b]pyridin-7-amine]
EC2x for IKBKAP protein expression (concentration producing two times the amount of IKBKAP protein vs DMSO vehicle control): **** (between >0.005 μM and ≤0.02 μM is indicated by four stars (****)) | MFI (maximum fold increase in IKBKAP protein abundance relative to the vehicle control): ***** (>4.9 is indicated by five stars (*****))

Cc1c(C[C@@H](N)CC(C)C)sc2c(NCc3cccs3)cc(Cl)nc12 [Compound 61, 2-[(2S)-2-amino-4-methylpentyl]-5-chloro-3-methyl-N-[(thiophen-2-yl)methyl]thieno[3,2-b]pyridin-7-amine]
EC2x for IKBKAP protein expression (concentration producing two times the amount of IKBKAP protein vs DMSO vehicle control): ***** (≤0.005 μM is indicated by five stars (*****)) | MFI (maximum fold increase in IKBKAP protein abundance relative to the vehicle control): ***** (>4.9 is indicated by five stars (*****))

CC(C)C[C@H](N)Cc1sc2c(NCc3nccs3)cc(Cl)nc2c1Br [Compound 62, 2-[(2S)-2-amino-4-methylpentyl]-3-bromo-5-chloro-N-[(1,3-thiazol-2-yl)methyl]thieno[3,2-b]pyridin-7-amine]
EC2x for IKBKAP protein expression (concentration producing two times the amount of IKBKAP protein vs DMSO vehicle control): ***** (≤0.005 μM is indicated by five stars (*****)) | MFI (maximum fold increase in IKBKAP protein abundance relative to the vehicle control): ***** (>4.9 is indicated by five stars (*****))

N[C@H](CF)Cc1sc2c(NCc3cccs3)cc(Cl)nc2c1Br [Compound 63, 2-[(2S)-2-amino-3-fluoropropyl]-3-bromo-5-chloro-N-[(thiophen-2-yl)methyl]thieno[3,2-b]pyridin-7-amine]
EC2x for IKBKAP protein expression (concentration producing two times the amount of IKBKAP protein vs DMSO vehicle control): *** (between >0.02 μM and ≤0.5 μM is indicated by three stars (***)) | MFI (maximum fold increase in IKBKAP protein abundance relative to the vehicle control): ** (between >1.9 and ≤2.9 is indicated by two stars (**))

N[C@@H](COC(F)(F)F)Cc1sc2c(NCc3nccs3)cc(Cl)nc2c1Br [Compound 64, 2-[(2R)-2-amino-3-(trifluoromethoxy)propyl]-3-bromo-5-chloro-N-[(1,3-thiazol-2-yl)methyl]thieno[3,2-b]pyridin-7-amine]
EC2x for IKBKAP protein expression (concentration producing two times the amount of IKBKAP protein vs DMSO vehicle control): **** (between >0.005 μM and ≤0.02 μM is indicated by four stars (****)) | MFI (maximum fold increase in IKBKAP protein abundance relative to the vehicle control): ***** (>4.9 is indicated by five stars (*****))

OC[C@@H](Cc1sc2c(NCc3nccs3)cc(Cl)nc2c1Br)NC(F)(F)F [Compound 65, (2R)-3-(3-bromo-5-chloro-7-{[(1,3-thiazol-2-yl)methyl]amino}thieno[3,2-b]pyridin-2-yl)-2-[(trifluoromethyl)amino]propan-1-ol]
EC2x for IKBKAP protein expression (concentration producing two times the amount of IKBKAP protein vs DMSO vehicle control): *** (between >0.02 μM and ≤0.5 μM is indicated by three stars (***)) | MFI (maximum fold increase in IKBKAP protein abundance relative to the vehicle control): ***** (>4.9 is indicated by five stars (*****))

N[C@H](CF)Cc1sc2c(NCc3nccs3)cc(Cl)nc2c1Br [Compound 66, 2-[(2S)-2-amino-3-fluoropropyl]-3-bromo-5-chloro-N-[(1,3-thiazol-2-yl)methyl]thieno[3,2-b]pyridin-7-amine]
EC2x for IKBKAP protein expression (concentration producing two times the amount of IKBKAP protein vs DMSO vehicle control): *** (between >0.02 μM and ≤0.5 μM is indicated by three stars (***)) | MFI (maximum fold increase in IKBKAP protein abundance relative to the vehicle control): * (An MFI≤1.9 is indicated by one star (*))

N[C@H](CF)Cc1sc2c(NCc3nccs3)cc(Cl)nc2c1Cl [Compound 67, 2-[(2S)-2-amino-3-fluoropropyl]-3,5-dichloro-N-[(1,3-thiazol-2-yl)methyl]thieno[3,2-b]pyridin-7-amine]
EC2x for IKBKAP protein expression (concentration producing two times the amount of IKBKAP protein vs DMSO vehicle control): * (An EC2x>1 μM is indicated by one star (*)) | MFI (maximum fold increase in IKBKAP protein abundance relative to the vehicle control): * (An MFI≤1.9 is indicated by one star (*))
